Laboratory results taken from article PMC9855333, “1-(Arylsulfonyl-isoindol-2-yl)piperazines as 5-HT6R Antagonists: Mechanochemical Synthesis, In Vitro Pharmacological Properties and Glioprotective Activity” (Biomolecules, 2022).
Values joined by “and” are separate entries in the source; they are usually repeats but may differ in a detail not shown here. Equal entries are not always repeated. Where two headings read alike, the source gives them in different places.

Key:
human D2L receptor = target: T1, human D2L receptor (Homo sapiens, UniProt P14416); experiment: Radioligand binding, [3H]-raclopride displacement, HEK-293 cells; details: mean ± SEM, three independent binding experiments; read-out: Ki [nM] D2
T1 construct: expressed in transfected cells
Experimental: (§1) All experiments were performed in HEK-293 cells, which stably express the human 5-HT1A, 5-HT6, 5-HT7b, and D2L receptors, or using CHO-K1 cells expressing human serotonin 5-HT2A receptor, following the previously reported procedures. For displacement studies, the following radioligands (PerkinElmer, USA) at given concentrations were used at: 2.5 nM [^3H]-8-OH-DPAT (135.2 Ci/ mmol); 1 nM [^3H]-ketanserin (53.4 Ci/mmol); 2 nM [^3H]-LSD (83.6 Ci/mmol); 0.8 nM [^3H]-5-CT (39.2 Ci/mmol) or 2.5 nM [^3H]-raclopride (76.0 Ci/mmol) for 5-HT1A, 5-HT2A, 5-HT6, 5-HT7b and D2L receptors, respectively. All tested compounds were evaluated in triplicate at 7 concentrations (10^−10–10^−4 M). The inhibition constants (Ki) were calculated from the Cheng–Prusoff equation [25]. A detailed description is reported in the Supporting Information.
(§2) 1. Procedure for radioligand binding assay
(§3) All experiments were carried out according to the previously published procedures. HEK293 cells stably expressing human 5-HT1A, 5-HT6, 5-HT7b and D2L receptors (prepared with the use of Lipofectamine 2000) or CHO-K1 cells with plasmid containing the sequence coding for the human serotonin 5-HT2A receptor (Perkin Elmer) were maintained at 37 °C in a humidified atmosphere containing 5% CO2 and grown in Dulbecco’s Modified Eagle’s Medium containing 10% dialyzed fetal bovine serum and 500 μg/ml G418 sulfate. For membrane preparation, cells were cultured in 150 cm2 flasks, grown to 90% confluence, washed twice with pre-warmed to 37 °C phosphate buffered saline (PBS) and centrifuged (200 × g) in PBS containing 0.1 mM EDTA and 1 mM dithiothreitol. Prior to membrane preparation, pellets were stored at –80 °C. […]
The process of equilibration was terminated by rapid filtration through Unifilter plates with a 96-well cell harvester and radioactivity retained on the filters was quantified on a Microbeta plate reader (PerkinElmer, USA). […] The inhibition constants (Ki) were calculated from the Cheng-Prusoff equation [4].

[1] = Metabolic stability in rat liver microsomes (RLM); assay type: in vitro ADME; details: for microsomal CLint at 20 µM / half-life at 20 µM: male, rat, rat liver microsomes, pH 7.4, protein concentration 0.5 mg/mL; for half-life at 20 µM: read-out: Metabolic Stability t1/2; for Metabolic Stability Major Metabolite: protein concentration 0.5 mg/mL
Experimental: Metabolic stability studies were performed according to reported protocols. […] All samples were analyzed in duplicate.

5-HT6R [2] = target: T2, 5-HT6R (Homo sapiens, UniProt P50406); experiment: Radioligand binding, [3H]-LSD displacement, HEK-293 cells; set-up: expressed in transfected cells; details: three independent binding experiments
Experimental: as §1
All synthesized compounds were evaluated in ^3[H]-LSD competition binding experiments for their affinity for 5-HT6R expressed in HEK-293 cells (Table 1). Embedding the sulfonamide moiety into an unsubstituted isoindoline scaffold was sufficient to provide potent compounds 3a and 3e. […] This effect might result from the favorable localization of the bromine atom at the isoindoline fragment, which enabled compound 3k to adopt an optimal position in the receptor binding pocket via the formation of hydrophobic/steric interactions.
as §2
as §3, with “°C. Cell pellets were thawed and homogenized in 10 volumes of assay buffer using an Ultra Turrax tissue homogenizer and centrifuged twice at 35,000 × g for 15 min at 4 °C, with incubation for 15 min at 37 °C between the centrifugations. The composition of the assay buffers was experimentally selected to achieve the” for “°C.”
5-HT1AR: 50 mM Tris HCl, 0.1 mM EDTA, 4 mM MgCl2, 10 μM pargyline and 0.1% ascorbate; 5-HT2AR: 50 mM Tris HCl, 0.1 mM EDTA, 4 mM MgCl2 and 0.1% ascorbate;
5-HT6R: 50 mM Tris HCl, 0.5 mM EDTA and 4 mM MgCl2; 5-HT7bR: 50 mM Tris HCl, 4 mM MgCl2, 10 μM pargyline and 0.1% ascorbate; D2LR: 50 mM Tris HCl, 1 mM EDTA, 4 mM MgCl2, 120 mM NaCl, 5 mM KCl, 1.5 mM CaCl2 and 0.1% ascorbate).
All assays were carried out in a total volume of 200 μL in 96-well plates for 1 h at 37 °C, except 5-HT1AR and 5-HT2AR which were incubated at room temperature and 27 °C, respectively.
The process of equilibration was terminated by rapid filtration through Unifilter plates with a 96-well cell harvester and radioactivity retained on the filters was quantified on a Microbeta plate reader (PerkinElmer, USA). For displacement studies the assay samples contained as radioligands (PerkinElmer, USA): 2.5 nM [3H]-8-OH-DPAT (135.2 Ci/ mmol) for 5-HT1AR; 1 nM [3H]-ketanserin (53.4 Ci/mmol) for 5-HT2AR; 2 nM [3H]-LSD (83.6 Ci/mmol) for 5-HT6R; 0.8 nM [3H]-5-CT (39.2 Ci/mmol) for 5-HT7R or 2.5 nM [3H]-raclopride (76.0 Ci/mmol) for D2LR. Non-specific binding was defined in the presence of 10 μM of 5-HT in 5-HT1AR and 5-HT7R binding experiments, 20 μM of mianserin for 5-HT2AR, 10 μM of methiothepine for 5-HT6R or 10 μM of haloperidol for D2LR bidning assays. Each compound was tested in triplicate at 7 concentrations (10-10–10-4 M). The inhibition constants (Ki) were calculated […]

5-HT6R [3] = target: T2, 5-HT6R; experiment: Inhibition of 5-CT-induced cAMP production in 1321N1 cells (LANCE TR-FRET); assay type: cell-based; set-up: host or cells: 1321N1 (frozen recombinant cells); details: 5-CT as agonist, mean ± SEM, three independent experiments
[4] = Table 1, HEK293 cells, read-out: Ki [nM] ± SEM at the 5-HT6R
[5] = Table 2, mean ± SEM, read-out: 5-HT6R Ki

T1 sequence (P14416 whole entry): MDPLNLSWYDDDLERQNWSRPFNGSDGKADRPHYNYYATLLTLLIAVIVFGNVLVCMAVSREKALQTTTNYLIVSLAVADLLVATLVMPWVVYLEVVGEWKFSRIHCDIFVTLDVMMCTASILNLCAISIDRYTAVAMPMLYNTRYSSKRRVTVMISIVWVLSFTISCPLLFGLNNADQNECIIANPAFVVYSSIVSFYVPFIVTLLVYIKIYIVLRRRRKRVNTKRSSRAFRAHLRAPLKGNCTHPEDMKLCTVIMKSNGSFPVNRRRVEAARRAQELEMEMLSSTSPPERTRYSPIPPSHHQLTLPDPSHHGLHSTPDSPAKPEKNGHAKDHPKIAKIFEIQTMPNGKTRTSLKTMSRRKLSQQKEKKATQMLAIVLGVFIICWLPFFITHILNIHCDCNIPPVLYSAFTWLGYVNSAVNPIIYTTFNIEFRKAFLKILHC
T2 sequence (P50406 whole entry): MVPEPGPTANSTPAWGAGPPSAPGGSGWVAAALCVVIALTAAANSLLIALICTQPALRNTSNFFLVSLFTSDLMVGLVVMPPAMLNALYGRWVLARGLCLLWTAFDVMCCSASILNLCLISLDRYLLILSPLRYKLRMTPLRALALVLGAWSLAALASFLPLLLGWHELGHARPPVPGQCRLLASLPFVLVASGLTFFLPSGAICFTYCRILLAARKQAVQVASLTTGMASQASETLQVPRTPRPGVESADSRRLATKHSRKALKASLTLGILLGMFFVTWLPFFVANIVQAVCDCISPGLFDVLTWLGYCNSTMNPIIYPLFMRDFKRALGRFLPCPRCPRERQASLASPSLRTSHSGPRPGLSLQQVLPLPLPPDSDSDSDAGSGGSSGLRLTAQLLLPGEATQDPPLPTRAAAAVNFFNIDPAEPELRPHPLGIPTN

`O=S(=O)(c1cccc(N2CCNCC2)c1)N1Cc2ccccc2C1` [3e, 2-{[3-(Piperazin-1-yl)phenyl]sulfonyl}isoindoline] showed a Ki (human D2L receptor) of 3420 ± 415 nM, a microsomal CLint at 20 µM [1] of 3.78 µL/min/mg and a half-life at 20 µM [1] of 6.12 h. For the same molecule, the “Metabolic Stability Major Metabolite” value [1] was “not detected”, the Ki (5-HT6R [2]; [4]) was under 5 nM and the Ki (5-HT6R [2]; [5]) was 2 ± 0.2 nM. It also gave a Kb (5-HT6R [3]) of 0.7 ± 0.2 nM.

Work on `O=S(=O)(c1cccc(N2CCNCC2)c1)N1Cc2cccc(Cl)c2C1` [3f, 4-Chloro-2-{[3-(piperazin-1-yl)phenyl]sulfonyl}isoindoline] yielded a Ki (human D2L receptor) of 2030 ± 299 nM, a microsomal CLint at 20 µM [1] of 18 µL/min/mg and a half-life at 20 µM [1] of 1.28 h. The “Metabolic Stability Major Metabolite” value [1] was “hydroxylated”, the Ki (5-HT6R [2]; [4]) was < 5 nM and 1 nM and the Ki (5-HT6R [2]; [5]) was 1 ± 0.2 nM. It also gave a Kb (5-HT6R [3]) of 3.5 ± 0.8 nM.

Work on `O=S(=O)(c1cccc(N2CCNCC2)c1)N1Cc2cccc(Br)c2C1` [3g, 4-Bromo-2-{[3-(piperazin-1-yl)phenyl]sulfonyl}isoindoline] yielded a Ki (human D2L receptor) of 2440 ± 324 nM, a microsomal CLint at 20 µM [1] of 14.7 µL/min/mg and a half-life at 20 µM [1] of 1.57 h. The “Metabolic Stability Major Metabolite” value [1] was “hydroxylated”, the Ki (5-HT6R [2]; [4]) was < 5 nM and 1 nM and the Ki (5-HT6R [2]; [5]) was 1 ± 0.4 nM. The Kb (5-HT6R [3]) was 1.6 ± 0.3 nM.
